Results reported in patent US11584747B2, “Substituted pyridopyrimidinonyl compounds useful as T cell activators” (BRISTOL-MYERS SQUIBB COMPANY, priority 2019, dated 2023).
Where two headings read alike, the source gives them in different places.

Tests used:
human DGKζ = human DGKζ (Homo sapiens (Human), UniProt Q13574); experiment: DGKζ LIPGLO assay (extruded liposome substrate, ADP-Glo luminescence); assay type: biochemical; details: liposome (LIPGLO) assay; read-out: DGK zeta (liposome assay) IC50
human DGKζ, sequence (Q13574 other isoform, or with tags, fused parts or gaps): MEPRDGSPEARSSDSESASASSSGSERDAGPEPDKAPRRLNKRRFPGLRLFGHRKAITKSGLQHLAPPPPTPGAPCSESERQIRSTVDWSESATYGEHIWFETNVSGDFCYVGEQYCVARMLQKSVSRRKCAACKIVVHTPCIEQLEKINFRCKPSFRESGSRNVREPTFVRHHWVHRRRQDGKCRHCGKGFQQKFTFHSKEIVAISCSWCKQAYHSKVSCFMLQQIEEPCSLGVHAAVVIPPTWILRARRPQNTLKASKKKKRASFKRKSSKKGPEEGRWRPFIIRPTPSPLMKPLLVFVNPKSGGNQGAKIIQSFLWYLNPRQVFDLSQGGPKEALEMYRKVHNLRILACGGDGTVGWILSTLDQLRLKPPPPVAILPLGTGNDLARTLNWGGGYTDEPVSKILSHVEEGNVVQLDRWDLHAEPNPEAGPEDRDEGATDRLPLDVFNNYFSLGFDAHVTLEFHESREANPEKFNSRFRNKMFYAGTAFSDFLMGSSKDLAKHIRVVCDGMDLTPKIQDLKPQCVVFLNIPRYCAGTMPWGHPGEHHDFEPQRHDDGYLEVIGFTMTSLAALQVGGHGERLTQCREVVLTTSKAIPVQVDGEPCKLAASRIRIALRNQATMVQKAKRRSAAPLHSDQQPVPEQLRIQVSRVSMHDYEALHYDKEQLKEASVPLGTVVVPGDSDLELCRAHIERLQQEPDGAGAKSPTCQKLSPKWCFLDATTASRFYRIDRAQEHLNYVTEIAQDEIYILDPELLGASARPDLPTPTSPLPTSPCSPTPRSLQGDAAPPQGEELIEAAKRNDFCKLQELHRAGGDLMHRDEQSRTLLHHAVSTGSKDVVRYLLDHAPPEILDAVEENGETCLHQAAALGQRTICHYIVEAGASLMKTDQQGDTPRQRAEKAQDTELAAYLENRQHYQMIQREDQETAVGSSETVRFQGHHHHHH

human DGKα [1] = molecular target: T1, human DGKα (Homo sapiens (Human), UniProt P23743); experiment: DGKα ADPGLO assay (detergent/lipid micelle substrate); assay type: biochemical; details: ADPGLO assay; read-out: DGK alpha ADPGLO IC50
T1 sequence (P23743 whole entry, looked up, the tested form may be a part): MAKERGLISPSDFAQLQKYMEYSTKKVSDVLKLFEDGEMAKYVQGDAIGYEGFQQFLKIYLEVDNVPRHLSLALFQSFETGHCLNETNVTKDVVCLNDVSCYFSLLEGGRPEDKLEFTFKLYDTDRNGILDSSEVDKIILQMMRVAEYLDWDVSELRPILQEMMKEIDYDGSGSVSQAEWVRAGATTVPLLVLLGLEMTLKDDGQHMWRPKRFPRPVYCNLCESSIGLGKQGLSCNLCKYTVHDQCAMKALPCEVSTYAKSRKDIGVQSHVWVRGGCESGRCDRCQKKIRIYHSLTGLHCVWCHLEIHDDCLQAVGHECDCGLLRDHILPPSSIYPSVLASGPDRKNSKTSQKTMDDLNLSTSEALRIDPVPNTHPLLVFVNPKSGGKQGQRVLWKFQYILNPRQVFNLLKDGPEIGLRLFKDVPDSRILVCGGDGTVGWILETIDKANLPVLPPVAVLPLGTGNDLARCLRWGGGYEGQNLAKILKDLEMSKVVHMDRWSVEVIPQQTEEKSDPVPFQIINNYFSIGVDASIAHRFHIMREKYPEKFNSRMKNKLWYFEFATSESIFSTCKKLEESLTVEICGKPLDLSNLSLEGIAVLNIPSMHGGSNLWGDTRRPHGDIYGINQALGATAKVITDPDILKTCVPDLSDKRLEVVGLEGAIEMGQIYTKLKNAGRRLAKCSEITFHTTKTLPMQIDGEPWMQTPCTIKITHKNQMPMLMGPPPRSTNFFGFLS
Method: DGK Alpha ADPGLO (Truncated) IC50 (uM)
The detergent/lipid micelle was prepared by combining 15 g phosphatidylserine (Avanti 840035P) and 1 g diacylglycerol (8008110) and dissolving into 150 mL chloroform in a 2 L round bottom flask. Chloroform was removed under high vacuum by rotary evaporation. […] The lipid/detergent solution was split into 5 mL aliquots and stored at −80° C.

[2] = system: human venous whole blood (IFN-γ); experiment: Human whole blood IFN-γ assay; assay type: cell-based; details: human whole blood, anti-CD3 plus anti-CD28 stimulation, 24 hours, read-out: IFN-γ Whole Blood EC50
Method: Human venous whole blood (22.5 μL per well), obtained from healthy donors, was pre-treated with compounds for one hour at 37° C. in a humidified 95% air/5% CO2 incubator. The blood was stimulated with 2.5 μL anti-human CD3 and anti-CD28 mAb at a final concentration of 1 μg/mL each for 24 hours at 37° C. IFN-γ in the supernatants was measured using AlphLISA kit (Cat #AL217).

whole blood (pERK) = experiment: pERK Whole Blood; assay type: cell-based
human DGKα [3] = molecular target: T1, human DGKα; experiment: DGKα LIPGLO assay (extruded liposome substrate, ADP-Glo luminescence); assay type: biochemical; details: liposome (LIPGLO) assay; read-out: DGK alpha (liposome assay) IC50

IC50 (human DGKζ) | IC50 (human DGKα [1]) | EC50 [2] | EC50 (whole blood (pERK)) | IC50 (human DGKα [3]) | EC50 ([2]; Homo sapiens, 24 h) | Compound
1400 nM | 62 nM | 11700 nM | 3670 nM |  |  | CCC(c1ccc(OC)cc1)N1C[C@H](C)N(c2nc(=O)n(C)c3ccc(C#N)nc23)C[C@H]1CC (stereo partly drawn) [Example 305, 4-((2S,5R)-5-ethyl-4-(1-(4-methoxyphenyl)propyl)-2-methylpiperazin-1-yl)-1-methyl-2-oxo-1,2-dihydropyrido[3,2-d]pyrimidine-6-carbonitrile]
43 nM | 12 nM | 130 nM | 240 nM |  |  | CC(c1ccc(CN2CCOC(C)(C)C2)cc1)N1C[C@H](C)N(c2nc(=O)n(C)c3ccc(C#N)nc23)C[C@H]1C (single isomer, unassigned) [Example 385]
5510 nM | 1900 nM | 4160 nM | 7290 nM |  |  | CCC(c1ccc(C(F)(F)F)cc1)N1C[C@H](CC)N(c2nc(=O)n(C)c3ccc(OC)nc23)C[C@H]1CC (stereo partly drawn) [Example 435, 4-((2S,5R)-2,5-diethyl-4-(1-(4-(trifluoromethyl)phenyl)propyl)piperazin-1-yl)-6-methoxy-1-methylpyrido[3,2-d]pyrimidin-2(1H)-one]
1340 nM | 2020 nM | 720 nM | 1130 nM |  |  | CC(c1ccc(CN2CCC(F)(F)CC2)cc1)N1C[C@H](C)N(c2nc(=O)n(C)c3ccc(C#N)nc23)C[C@H]1C (stereo partly drawn) [Example 391, 4-((2S,5R)-4-(1-(4-((4,4-difluoropiperidin-1-yl)methyl)phenyl)ethyl)-2,5-dimethylpiperazin-1-yl)-1-methyl-2-oxo-1,2-dihydropyrido[3,2-d]pyrimidine-6-carbonitrile]
72 nM | 90 nM | 120 nM | 100 nM |  |  | CCC(c1ccc(OC(C)C)cc1)N1C[C@H](C)N(c2nc(=O)n(C)c3ccc(C#N)nc23)C[C@H]1CC (stereo partly drawn) [Example 333, 4-((2 S,5R)-5-ethyl-4-(1-(4-isopropoxyphenyl)propyl)-2-methylpiperazin-1-yl)-1-methyl-2-oxo-1,2-dihydropyrido[3,2-d]pyrimidine-6-carbonitrile]
110 nM |  |  | 2580 nM | 13600 nM | 1190 nM | COC(=O)NC[C@@H]1CN(c2nc(=O)n(C)c3ccc(C#N)nc23)[C@@H](C)CN1C(C)c1ccc(C(F)(F)F)cc1 (some centres unmarked) [Example 405]
530 nM | 460 nM | 730 nM | 20000 nM |  |  | CCC(c1ccc(OC(C)C)cc1)N1C[C@H](C)N(c2nc(=O)n(C)c3ccc(C#N)nc23)C[C@H]1CC (stereo partly drawn) [Example 334, 4-((2 S,5R)-5-ethyl-4-(1-(4-isopropoxyphenyl)propyl)-2-methylpiperazin-1-yl)-1-methyl-2-oxo-1,2-dihydropyrido[3,2-d]pyrimidine-6-carbonitrile]
32 nM | 17 nM |  | 24 nM |  | 160 nM | CCC(c1nc(C2CC2)no1)N1C[C@H](CC)N(c2nc(=O)n(C)c3ccc(C#N)nc23)C[C@H]1CC (stereo partly drawn) [Example 363, 4-((2S,5R)-4-(1-(3-cyclopropyl-1,2,4-oxadiazol-5-yl)propyl)-2,5-diethylpiperazin-1-yl)-1-methyl-2-oxo-1,2-dihydropyrido[3,2-d]pyrimidine-6-carbonitrile]
250000 nM | 250000 nM |  | 20000 nM |  | 20000 nM | CC[C@H]1CN(C(C)c2ccc(C(F)(F)F)cc2)[C@H](CC)CN1c1nc(=O)n(C)c2ccc(OCCN(C)C)nc12 (stereo partly drawn) [Example 431, 4-((2S,5R)-2,5-diethyl-4-(1-(4-(trifluoromethyl)phenyl)ethyl)piperazin-1-yl)-6-(2-(dimethylamino)ethoxy)-1-methylpyrido[3,2-d]pyrimidin-2(1H)-one]
180 nM | 97 nM | 40 nM | 20000 nM |  |  | CC(c1ccc(CN2CCC(F)(F)CC2)cc1)N1C[C@H](C)N(c2nc(=O)n(C)c3ccc(C#N)nc23)C[C@H]1C (stereo partly drawn) [Example 390, 4-((2S,5R)-4-(1-(4-((4,4-difluoropiperidin-1-yl)methyl)phenyl)ethyl)-2,5-dimethylpiperazin-1-yl)-1-methyl-2-oxo-1,2-dihydropyrido[3,2-d]pyrimidine-6-carbonitrile]
100 nM | 13 nM |  | 3320 nM |  | 190 nM | CC[C@H]1CN(C(c2ccc(F)cc2)c2noc(C3CC3)n2)[C@H](CC)CN1c1nc(=O)n(C)c2ccc(C#N)nc12 (single isomer, unassigned) [Example 371]
4760 nM |  |  | 3670 nM | 49500 nM | 1390 nM | CC(c1ccc(C(F)(F)F)cc1)N1C[C@H](C)N(c2nc(=O)n(C)c3ccc(Cl)nc23)C[C@H]1CN=[N+]=[N-] (stereo partly drawn) [Example 402, 4-((2S,5S)-5-(Azidomethyl)-2-methyl-4-(1-(4-(trifluoromethyl)phenyl)ethyl)piperazin-1-yl)-6-chloro-1-methylpyrido[3,2-d]pyrimidin-2(1H)-one]
39 nM | 62 nM | 34 nM | 890 nM |  |  | CCC(c1ccc(OCC2CC2)cc1)N1C[C@H](C)N(c2nc(=O)n(C)c3ccc(C#N)nc23)C[C@H]1CC (stereo partly drawn) [Example 308, 4-((2S,5R)-4-(1-(4-(cyclopropylmethoxy)phenyl)propyl)-5-ethyl-2-methylpiperazin-1-yl)-1-methyl-2-oxo-1,2-dihydropyrido[3,2-d]pyrimidine-6-carbonitrile]
8220 nM | 1000 nM |  | 370 nM |  |  | CC(c1ccc(CN2C[C@@H](C)O[C@@H](C)C2)cc1)N1C[C@H](C)N(c2nc(=O)n(C)c3ccc(C#N)nc23)C[C@H]1C (stereo partly drawn) [Example 389, 4-((2S,5R)-4-(1-(4-(((2S,6R)-2,6-dimethylmorpholino)methyl)phenyl)ethyl)-2,5-dimethylpiperazin-1-yl)-1-methyl-2-oxo-1,2-dihydropyrido[3,2-d]pyrimidine-6-carbonitrile]
14 nM | 12 nM | 16 nM | 110 nM |  |  | CCC(c1ccc(OC)cc1)N1C[C@H](C)N(c2nc(=O)n(C)c3ccc(C#N)nc23)C[C@H]1CC (stereo partly drawn) [Example 304, 4-((2S,5R)-5-ethyl-4-(1-(4-methoxyphenyl)propyl)-2-methylpiperazin-1-yl)-1-methyl-2-oxo-1,2-dihydropyrido[3,2-d]pyrimidine-6-carbonitrile]
